In ChEMBL document CHEMBL5226377, “Totopotensamide Congeners from a Halogenase-Inactivated Mutant” (J Nat Prod, 2023):

Key:
Format in all cases: functional, cell-based
[1] = test system: A549; experiment: Cytotoxicity against human A549 cells assessed as inhibition of cell growth incubated for 24 hrs by MTT assay; conditions: A549, 24 h
[2] = test system: BXPC-3; experiment: Cytotoxicity against human BXPC-3 cells assessed as inhibition of cell growth incubated for 24 hrs by MTT assay; conditions: BXPC-3, 24 h
[3] = test system: PANC-1; experiment: Cytotoxicity against human PANC-1 cells assessed as inhibition of cell growth incubated for 24 hrs by MTT assay; conditions: PANC-1, 24 h
[4] = test system: Calu-3; experiment: Cytotoxicity against human Calu-3 cells assessed as inhibition of cell growth incubated for 24 hrs by MTT assay; conditions: Calu-3, 24 h

Row | SMILES | IC50 [1] | IC50 [2] | IC50 [3] | IC50 [4]
1 | CC[C@H](C)[C@@H]1NC(=O)[C@H](c2cc(O)c(C)c(O)c2)NC(=O)[C@H](NC(=O)[C@H](C)NC(=O)[C@H](NC(=O)CC(=O)[C@@H](C)C[C@@H](C)C[C@@H](C)[C@H](O)[C@@H](C)C(=O)[C@@H](C)O)[C@@H](C)O)[C@@H](C)NC(=O)CNC1=O | 9.2 µM | 2.3 µM | 6.5 µM | 18.8 µM
2 | CC[C@H](C)[C@@H]1NC(=O)[C@H](c2cc(O)c(C)c(O)c2)NC(=O)[C@H](NC(=O)[C@H](C)NC(=O)[C@H](NC(=O)CC(=O)[C@@H](C)C[C@@H](C)C[C@@H](C)[C@H](O)[C@@H](CO)[C@@H](O)CC)[C@@H](C)O)[C@@H](C)NC(=O)CNC1=O | 10.4 µM | 8.2 µM | 6.6 µM | 15.3 µM
3 | CC[C@H](O[C@@H]1O[C@H](CO)[C@@H](OC)[C@H](O)[C@H]1O)[C@H](C)[C@@H](O)[C@H](C)C[C@H](C)C[C@H](C)C(=O)CC(=O)N[C@@H](C(=O)N[C@@H](C)C(=O)N[C@H]1C(=O)N[C@@H](c2cc(O)c(C)c(O)c2)C(=O)N[C@@H]([C@@H](C)CC)C(=O)NCC(=O)N[C@@H]1C)[C@@H](C)O | 3.7 µM | 3.9 µM | 3.9 µM | 12.2 µM
4 | CCC[C@H](C)[C@@H](O)[C@H](C)C[C@H](C)C[C@H](C)C(=O)CC(=O)N[C@@H](C(=O)N[C@@H](C)C(=O)N[C@H]1C(=O)N[C@@H](c2cc(O)c(C)c(O)c2)C(=O)N[C@@H]([C@@H](C)CC)C(=O)NCC(=O)N[C@@H]1C)[C@@H](C)O | > 100 µM | > 100 µM | > 100 µM | > 100 µM
5 | CCC(=O)[C@H](C)[C@@H](O)[C@H](C)C[C@H](C)C[C@H](C)C(=O)CC(=O)N[C@@H](C(=O)N[C@@H](C)C(=O)N[C@H]1C(=O)N[C@@H](c2cc(O)c(C)c(O)c2)C(=O)N[C@@H]([C@@H](C)CC)C(=O)NCC(=O)N[C@@H]1C)[C@@H](C)O | 9.7 µM | 7.2 µM | 9.5 µM | 14.6 µM
6 | CC[C@H](C)[C@@H]1NC(=O)[C@H](c2cc(O)c(C)c(O)c2Cl)NC(=O)[C@H](NC(=O)[C@H](C)NC(=O)[C@H](NC(=O)CC(=O)[C@@H](C)C[C@@H](C)C[C@@H](C)[C@H](O)[C@@H](C)[C@@H](O[C@@H]2O[C@H](CO)[C@@H](OC)[C@H](O)[C@H]2O)[C@@H](C)O)[C@@H](C)O)[C@@H](C)NC(=O)CNC1=O | > 100 µM | > 100 µM | > 100 µM | > 100 µM
7 | CC[C@H](C)[C@@H]1NC(=O)[C@H](c2cc(O)c(C)c(O)c2)NC(=O)[C@H](NC(=O)[C@H](C)NC(=O)[C@H](NC(=O)CC(=O)[C@@H](C)C[C@@H](C)C[C@@H](C)[C@H](O)[C@@H](C)[C@@H](O[C@@H]2O[C@H](CO)[C@@H](OC)[C@H](O)[C@H]2O)[C@@H](C)O)[C@@H](C)O)[C@@H](C)NC(=O)CNC1=O | > 100 µM | > 100 µM | > 100 µM | > 100 µM
8 | CC[C@H](C)[C@@H]1NC(=O)[C@H](c2cc(O)c(C)c(O)c2)NC(=O)[C@H](NC(=O)[C@H](C)NC(=O)[C@H](NC(=O)CC(=O)[C@@H](C)C[C@@H](C)C[C@@H](C)[C@H](O)[C@@H](C)[C@@H](O)CC)[C@@H](C)O)[C@@H](C)NC(=O)CNC1=O | 58.8 µM | 30.4 µM | 42.1 µM | > 100 µM
